Patent publication US10370371B2, “Substituted pyrimidine Bmi-1 inhibitors” (PTC Therapeutics, Inc., priority 2013, dated 2019)

Test system: Bmi-1 protein
Experiment: Sandwich ELISA Assay (Bmi-1 protein level in HT-1080 cells)
Assay type: cell-based
Outline: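 HT-1080 cells were treated with compounds (0.5% DMSO final) for 40-48 h at 37 °C. Lysates were assayed by sandwich ELISA: mouse anti-Bmi-1 capture, rabbit anti-Bmi-1 and HRP anti-rabbit detection, TMB read at OD450 (OD570 reference). Levels were quantified against a recombinant GST-Bmi-1 standard curve (125-8000 pg/mL).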

Q: How did the EC50 turn out when `CCc1nn2ccccc2c1-c1cc(N)nc(Nc2ccc(C(F)(F)F)cc2)n1` [Cpd 90, 6-(2-ethylpyrazolo[1,5-a]pyridin-3-yl)-N^2-[4-(trifluoromethyl)phenyl]pyrimidine-2,4-diamine] was run?
A: The EC50 was 10 to 100 nM.

Q: For `CCc1nn2ccccc2c1-c1cc(N)nc(Nc2ccc(OC(F)F)cc2)n1` [Cpd 91, N^2-[4-(difluoromethoxy)phenyl]-6-(2-ethylpyrazolo[1,5-a]pyridin-3-yl)pyrimidine-2,4-diamine], which EC50 is on record?
A: The EC50 was 10 to 100 nM.

Q: For `Nc1cc(-n2c(C3CC3)nc3cc(Cl)ccc32)nc(Nc2ccc(OC(F)F)cc2)n1` [Cpd 92, 6-(5-chloro-2-cyclopropyl-1H-benzimidazol-1-yl)-N^2-[4-(difluoromethoxy)phenyl]pyrimidine-2,4-diamine], which EC50 is on record?
A: The EC50 was 10 to 100 nM.

Q: For `Nc1cc(-n2c(C3CC3)nc3ccc(Cl)cc32)nc(Nc2ccc(OC(F)F)cc2)n1` [Cpd 93, 6-(6-chloro-2-cyclopropyl-1H-benzimidazol-1-yl)-N^2-[4-(difluoromethoxy)phenyl]pyrimidine-2,4-diamine], which EC50 is on record?
A: Its EC50 is 10 to 100 nM.

Q: `Cc1nc2ccccc2n1-c1nc(Nc2ccc(OC(F)F)cc2)nc(N)c1F` [Cpd 94, N^2-[4-(difluoromethoxy)phenyl]-5-fluoro-6-(2-methyl-1H-benzimidazol-1-yl)pyrimidine-2,4-diamine] was tested. Which EC50 did it give?
A: Its EC50 is 10 to 100 nM.

Q: Which EC50 does the source give for `CCc1nc2ccccc2n1-c1cc(N)nc(Nc2ccc(C(F)(F)F)nc2)n1` [Cpd 95, 6-(2-ethyl-1H-benzimidazol-1-yl)-N^2-[6-(trifluoromethyl)pyridin-3-yl]pyrimidine-2,4-diamine] here?
A: Its EC50 is 10 to 100 nM.

Q: For `CCc1nc2cc(Cl)ccc2n1-c1cc(N)nc(Nc2ccc(C(F)(F)F)cc2)n1` [Cpd 96, 6-(5-chloro-2-ethyl-1H-benzimidazol-1-yl)-N^2-[4-(trifluoromethyl)phenyl]pyrimidine-2,4-diamine], which EC50 is on record?
A: Its EC50 is 100 to 3000 nM.

Q: How did the EC50 turn out when `CCc1nc2ccc(Cl)cc2n1-c1cc(N)nc(Nc2ccc(C(F)(F)F)cc2)n1` [Cpd 97, 6-(6-chloro-2-ethyl-1H-benzimidazol-1-yl)-N^2-[4-(trifluoromethyl)phenyl]pyrimidine-2,4-diamine] was run?
A: The EC50 was 10 to 100 nM.

Q: Which EC50 does the source give for `Nc1cc(-c2c(C(F)(F)F)nn3ccccc23)nc(Nc2ccc(C(F)(F)F)cc2)n1` [Cpd 98, N^2-[4-(trifluoromethyl)phenyl]-6-[2-(trifluoromethyl)pyrazolo[1,5-a]pyridin-3-yl]pyrimidine-2,4-diamine] here?
A: The EC50 was 10 to 100 nM.

Q: For `Cc1nc2ncc(F)cc2n1-c1cc(N)nc(Nc2ccc(C(F)(F)F)cc2)n1` [Cpd 100, 6-(6-fluoro-2-methyl-1H-imidazo[4,5-b]pyridin-1-yl)-N^2-[4-(trifluoromethyl)phenyl]pyrimidine-2,4-diamine], which EC50 is on record?
A: Its EC50 is 1 to 10 nM.

Q: Which EC50 does the source give for `Cc1nc2ncc(F)cc2n1-c1cc(N)nc(Nc2ccc(OC(F)F)cc2)n1` [Cpd 101, N^2-[4-(difluoromethoxy)phenyl]-6-(6-fluoro-2-methyl-1H-imidazo[4,5-b]pyridin-1-yl)pyrimidine-2,4-diamine] here?
A: Its EC50 is 1 to 10 nM.

Q: Which EC50 does the source give for `Cc1nc2cc(F)ccc2n1-c1cc(N)nc(Nc2ccc(C(F)(F)F)cc2)n1` [Cpd 102, 6-(5-fluoro-2-methyl-1H-benzimidazol-1-yl)-N^2-[4-(trifluoromethyl)phenyl]pyrimidine-2,4-diamine] here?
A: Its EC50 is 10 to 100 nM.

Q: `CCc1nc2cc(F)ccc2n1-c1cc(N)nc(Nc2ccc(C(F)(F)F)cc2)n1` [Cpd 104, 6-(2-ethyl-5-fluoro-1-benzimidazol-1-yl)-N^2-[4-(trifluoromethyl)phenyl]pyrimidine-2,4-diamine] was tested. Which EC50 did it give?
A: The EC50 was 10 to 100 nM.

Q: `Nc1cc(-c2c(C3CC3)nn3ccc(F)cc23)nc(Nc2ccc(C(F)(F)F)cc2)n1` [Cpd 107, 6-(2-cyclopropyl-5-fluoropyrazolo[1,5-a]pyridin-3-yl)-N^2-[4-(trifluoromethyl)phenyl]pyrimidine-2,4-diamine] was tested. Which EC50 did it give?
A: Its EC50 is 100 to 3000 nM.

Q: With `Cc1nc2c(cc(F)c[n+]2[O-])n1-c1cc(N)nc(Nc2ccc(C(F)(F)F)cc2)n1` [Cpd 108, 6-(6-fluoro-2-methyl-4-oxido-1H-imidazo[4,5-b]pyridin-1-yl)-N^2-[4-(trifluoromethyl)phenyl]pyrimidine-2,4-diamine] as the compound, how does the EC50 read?
A: Its EC50 is 100 to 3000 nM.

Q: For `Cc1nn2ccc(F)cc2c1-c1cc(N)nc(Nc2ccc(C(F)(F)F)cc2)n1` [Cpd 109, 6-(5-fluoro-2-methylpyrazolo[1,5-a]pyridin-3-yl)-N^2-[4-(trifluoromethyl)phenyl]pyrimidine-2,4-diamine], which EC50 is on record?
A: Its EC50 is 10 to 100 nM.

Q: Which EC50 does the source give for `Cc1nc2ccccc2n1-c1cc(N)[n+]([O-])c(Nc2ccc(C(F)(F)F)cc2)n1` [Cpd 110, 6-(2-methyl-1H-benzimidazol-1-yl)-N^2-[4-(trifluoromethyl)phenyl]pyrimidine-2,4-diamine 3-oxide] here?
A: Its EC50 is 100 to 3000 nM.

Q: For `Cc1nc2ccc(F)cc2n1-c1cc(N)[n+]([O-])c(Nc2ccc(C(F)(F)F)cc2)n1` [Cpd 112, 6-(6-fluoro-2-methyl-1H-benzimidazol-1-yl)-N^2-[4-(trifluoromethyl)phenyl]pyrimidine-2,4-diamine 3-oxide], which EC50 is on record?
A: The EC50 was 100 to 3000 nM.

Q: How did the EC50 turn out when `COc1ccn2nc(C)c(-c3cc(Cl)nc(Nc4ccc(C(F)(F)F)cc4)n3)c2c1` [Cpd 113, 4-chloro-6-(5-methoxy-2-methylpyrazolo[1,5-a]pyridin-3-yl)-N-[4-(trifluoromethyl)phenyl]pyrimidin-2-amine] was run?
A: Its EC50 is 10 to 100 nM.

Q: With `COc1ccn2nc(C)c(-c3cc(N)nc(Nc4ccc(C(F)(F)F)cc4)n3)c2c1` [Cpd 114, 6-(5-methoxy-2-methylpyrazolo[1,5-a]pyridin-3-yl)-N^2-[4-(trifluoromethyl)phenyl]pyrimidine-2,4-diamine] as the compound, how does the EC50 read?
A: The EC50 was 10 to 100 nM.

Q: How did the EC50 turn out when `Cc1nc2cc(F)c(F)cc2n1-c1cc(N)[n+]([O-])c(Nc2ccc(OC(F)F)cc2)n1` [Cpd 115, N^2-[4-(difluoromethoxy)phenyl]-6-(5,6-difluoro-2-methyl-1H-benzimidazol-1-yl)pyrimidine-2,4-diamine 3-oxide] was run?
A: The EC50 was 100 to 3000 nM.

Q: How did the EC50 turn out when `Nc1cc(-n2c(C3CC3)nc3ccccc32)nc(Nc2ccc(C(F)(F)F)cc2)[n+]1[O-]` [Cpd 116, 6-(2-cyclopropyl-1H-benzimidazol-1-yl)-N^2-[4-(trifluoromethyl)phenyl]pyrimidine-2,4-diamine 3-oxide] was run?
A: The EC50 was 100 to 3000 nM.

Q: How did the EC50 turn out when `CCc1nc2ccccc2n1-c1cc(N)[n+]([O-])c(Nc2ccc(C(F)(F)F)cc2)n1` [Cpd 118, 6-(2-ethyl-1H-benzimidazol-1-yl)-N^2-[4-(trifluoromethyl)phenyl]pyrimidine-2,4-diamine 3-oxide] was run?
A: The EC50 was 100 to 3000 nM.

Q: How did the EC50 turn out when `CCc1nc2ccc(F)cc2n1-c1cc(N)[n+]([O-])c(Nc2ccc(C(F)(F)F)cc2)n1` [Cpd 119, 6-(2-ethyl-6-fluoro-1H-benzimidazol-1-yl)-N^2-[4-(trifluoromethyl)phenyl]pyrimidine-2,4-diamine 3-oxide] was run?
A: The EC50 was 100 to 3000 nM.

Q: With `Cc1nn2ccc(N)cc2c1-c1cc(N)nc(Nc2ccc(C(F)(F)F)cc2)n1` [Cpd 120, 6-(5-amino-2-methylpyrazolo[1,5-a]pyridin-3-yl)-N^2-[4-(trifluoromethyl)phenyl]pyrimidine-2,4-diamine] as the compound, how does the EC50 read?
A: The EC50 was 10 to 100 nM.

Q: How did the EC50 turn out when `Cc1nn2ccc(Cl)cc2c1-c1cc(N)nc(Nc2ccc(OC(F)F)cc2)n1` [Cpd 121, 6-(5-chloro-2-methylpyrazolo[1,5-a]pyridin-3-yl)-N^2-[4-(difluoromethoxy)phenyl]pyrimidine-2,4-diamine] was run?
A: Its EC50 is 10 to 100 nM.

Q: For `Cc1nn2ccc(Cl)cc2c1-c1cc(N)nc(Nc2ccc(C(F)(F)F)cc2)n1` [Cpd 122, 6-(5-chloro-2-methylpyrazolo[1,5-a]pyridin-3-yl)-N^2-[4-(trifluoromethyl)phenyl]pyrimidine-2,4-diamine], which EC50 is on record?
A: Its EC50 is 10 to 100 nM.

Q: How did the EC50 turn out when `CSc1nc2ccccc2n1-c1cc(N)nc(Nc2ccc(C(F)(F)F)cc2)n1` [Cpd 123, 6-[2-(methylsulfanyl)-1H-benzimidazol-1-yl]-N^2-[4-(trifluoromethyl)phenyl]pyrimidine-2,4-diamine] was run?
A: The EC50 was 10 to 100 nM.

Q: `CCc1nn2ccc(Cl)cc2c1-c1cc(N)nc(Nc2ccc(C(F)(F)F)cc2)n1` [Cpd 124, 6-(5-chloro-2-ethylpyrazolo[1,5-a]pyridin-3-yl)-N^2-[4-(trifluoromethyl)phenyl]pyrimidine-2,4-diamine] was tested. Which EC50 did it give?
A: The EC50 was 10 to 100 nM.

Q: For `CCc1nn2ccc(Cl)cc2c1-c1cc(N)nc(Nc2ccc(OC(F)F)cc2)n1` [Cpd 125, 6-(5-chloro-2-ethylpyrazolo[1,5-a]pyridin-3-yl)-N^2-[4-(difluoromethoxy)phenyl]pyrimidine-2,4-diamine], which EC50 is on record?
A: Its EC50 is 10 to 100 nM.

Q: `Cc1cccc(Nc2nc(N)cc(-n3c(C)nc4ccccc43)n2)c1` [Cpd 127, 6-(2-methyl-1H-benzimidazol-1-yl)-N^2-(3-methylphenyl)pyrimidine-2,4-diamine] was tested. Which EC50 did it give?
A: Its EC50 is 100 to 3000 nM.

Q: For `Cc1ccc(Nc2nc(N)cc(-n3c(C)nc4ccccc43)n2)cc1` [Cpd 128, 6-(2-methyl-1H-benzimidazol-1-yl)-N^2-(4-methylphenyl)pyrimidine-2,4-diamine], which EC50 is on record?
A: The EC50 was 1 to 10 nM.

Q: `Cc1nc2ccccc2n1-c1cc(N)nc(Nc2ccc(Br)cc2)n1` [Cpd 131, N^2-(4-bromophenyl)-6-(2-methyl-1H-benzimidazol-1-yl)pyrimidine-2,4-diamine] was tested. Which EC50 did it give?
A: Its EC50 is 10 to 100 nM.

Q: How did the EC50 turn out when `Cc1nc2ccccc2n1-c1cc(N)nc(Nc2ccc([N+](=O)[O-])cc2)n1` [Cpd 132, 6-(2-methyl-1H-benzimidazol-1-yl)-N^2-(4-nitrophenyl)pyrimidine-2,4-diamine] was run?
A: Its EC50 is 100 to 3000 nM.

Q: For `COc1ccc(Nc2nc(N)cc(-n3c(C)nc4ccc(F)cc43)n2)cc1` [Cpd 133, 6-(6-fluoro-2-methyl-1H-benzimidazol-1-yl)-N^2-(4-methoxyphenyl)pyrimidine-2,4-diamine], which EC50 is on record?
A: Its EC50 is 1 to 10 nM.

Q: For `Cc1nc2ccccc2n1-c1cc(N)nc(Nc2ccc(N(C)C)cc2)n1` [Cpd 144, N^2-[4-(dimethylamino)phenyl]-6-(2-methyl-1H-benzimidazol-1-yl)pyrimidine-2,4-diamine], which EC50 is on record?
A: Its EC50 is 1 to 10 nM.

Q: How did the EC50 turn out when `Cc1nc2ccccc2n1-c1cc(N)nc(Nc2ccc(C#N)cc2)n1` [Cpd 145, 4-{[4-amino-6-(2-methyl-1H-benzimidazol-1-yl)pyrimidin-2-yl]amino}benzonitrile] was run?
A: The EC50 was 100 to 3000 nM.

Q: For `Cc1nc2ccccc2n1-c1cc(N)nc(Nc2ccc(OC(F)(F)F)cc2)n1` [Cpd 146, 6-(2-methyl-1H-benzimidazol-1-yl)-N^2-[4-(trifluoromethoxy)phenyl]pyrimidine-2,4-diamine], which EC50 is on record?
A: The EC50 was 100 to 3000 nM.
